Measurements reported in patent US9273014B2, “Bis(fluoroalkyl)-1,4-benzodiazepinone compounds and prodrugs thereof” (Bristol-Myers Squibb Company, priority 2012, dated 2016).
Entries after “also recorded” stand apart in the source; their conditions may differ.

Columns and labels:
[1] = target: human Notch 3 (Homo sapiens, UniProt Q9UM47); experiment: Notch-CBF1 Transactivation Assay (Notch 3); assay type: cell-based; details: HeLa cells co-transfected with truncated Notch 3 and CBF1 luciferase reporter; 18 hours incubation
human Notch 3, sequence (Q9UM47 40-2321 limits assumed): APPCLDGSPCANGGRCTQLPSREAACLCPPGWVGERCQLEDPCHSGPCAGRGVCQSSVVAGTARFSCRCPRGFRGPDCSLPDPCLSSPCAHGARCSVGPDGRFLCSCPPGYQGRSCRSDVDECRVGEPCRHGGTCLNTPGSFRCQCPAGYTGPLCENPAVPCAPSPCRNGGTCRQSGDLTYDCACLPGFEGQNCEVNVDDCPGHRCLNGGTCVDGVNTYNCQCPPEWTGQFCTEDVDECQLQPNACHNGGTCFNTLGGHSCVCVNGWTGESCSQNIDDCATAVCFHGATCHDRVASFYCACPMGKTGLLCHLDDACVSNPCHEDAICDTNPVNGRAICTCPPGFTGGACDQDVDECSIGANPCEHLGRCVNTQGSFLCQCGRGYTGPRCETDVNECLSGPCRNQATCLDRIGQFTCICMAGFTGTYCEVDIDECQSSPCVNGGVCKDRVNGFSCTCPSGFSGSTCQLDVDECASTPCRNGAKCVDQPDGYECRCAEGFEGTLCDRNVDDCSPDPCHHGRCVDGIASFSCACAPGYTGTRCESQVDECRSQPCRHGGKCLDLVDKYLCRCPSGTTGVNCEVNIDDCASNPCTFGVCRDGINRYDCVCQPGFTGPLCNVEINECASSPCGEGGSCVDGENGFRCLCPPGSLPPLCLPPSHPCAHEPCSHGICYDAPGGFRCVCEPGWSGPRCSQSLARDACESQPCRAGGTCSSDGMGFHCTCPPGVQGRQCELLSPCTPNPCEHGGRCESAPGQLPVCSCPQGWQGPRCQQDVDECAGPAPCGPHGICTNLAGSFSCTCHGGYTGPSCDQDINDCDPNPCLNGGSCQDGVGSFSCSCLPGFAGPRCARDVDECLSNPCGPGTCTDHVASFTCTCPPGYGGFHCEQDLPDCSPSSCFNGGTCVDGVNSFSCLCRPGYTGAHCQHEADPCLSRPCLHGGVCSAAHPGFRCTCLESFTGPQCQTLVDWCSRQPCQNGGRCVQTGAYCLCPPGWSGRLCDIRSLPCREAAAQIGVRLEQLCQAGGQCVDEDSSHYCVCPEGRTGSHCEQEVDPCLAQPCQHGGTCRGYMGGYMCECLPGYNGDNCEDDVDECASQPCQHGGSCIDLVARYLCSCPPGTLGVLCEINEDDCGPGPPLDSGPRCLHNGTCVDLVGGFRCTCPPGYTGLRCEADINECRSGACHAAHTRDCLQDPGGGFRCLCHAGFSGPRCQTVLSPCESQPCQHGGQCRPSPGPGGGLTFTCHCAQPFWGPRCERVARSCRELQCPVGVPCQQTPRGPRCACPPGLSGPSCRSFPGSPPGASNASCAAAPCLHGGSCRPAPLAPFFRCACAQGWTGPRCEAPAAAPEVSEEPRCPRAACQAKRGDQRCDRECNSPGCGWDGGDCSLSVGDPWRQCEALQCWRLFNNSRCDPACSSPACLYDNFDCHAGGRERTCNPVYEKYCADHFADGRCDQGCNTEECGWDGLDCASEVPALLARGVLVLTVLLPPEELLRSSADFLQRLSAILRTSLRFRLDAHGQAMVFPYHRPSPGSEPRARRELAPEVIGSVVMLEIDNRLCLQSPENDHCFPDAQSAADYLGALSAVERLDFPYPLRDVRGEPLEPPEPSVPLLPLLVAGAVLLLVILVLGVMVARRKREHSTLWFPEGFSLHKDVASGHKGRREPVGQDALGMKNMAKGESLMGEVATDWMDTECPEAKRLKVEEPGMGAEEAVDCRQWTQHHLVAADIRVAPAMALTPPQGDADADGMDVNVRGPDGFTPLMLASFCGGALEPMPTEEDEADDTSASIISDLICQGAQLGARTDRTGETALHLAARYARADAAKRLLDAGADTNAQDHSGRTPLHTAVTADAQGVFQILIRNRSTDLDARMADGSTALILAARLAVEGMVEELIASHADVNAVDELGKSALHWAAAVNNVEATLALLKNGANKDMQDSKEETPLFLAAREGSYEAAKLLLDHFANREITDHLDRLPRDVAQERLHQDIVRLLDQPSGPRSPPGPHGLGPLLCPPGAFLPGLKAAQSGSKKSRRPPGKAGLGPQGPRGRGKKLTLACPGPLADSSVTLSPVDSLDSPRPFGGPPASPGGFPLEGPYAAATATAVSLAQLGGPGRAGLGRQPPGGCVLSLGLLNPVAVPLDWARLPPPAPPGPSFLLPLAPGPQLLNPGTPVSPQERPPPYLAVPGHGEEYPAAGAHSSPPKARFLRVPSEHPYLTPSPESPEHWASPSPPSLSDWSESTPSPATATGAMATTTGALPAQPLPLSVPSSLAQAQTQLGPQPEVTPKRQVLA
Source text: Notch-CBF1 Transactivation Assay
The Notch-CBF1 (C-promoter binding factor I) cell based transactivation assay is based on the ability of the released Notch intracellular domain fragments (NICDs) to function as transcription factors in conjunction with CBF1 and other nuclear factors. Luciferase assays were used to measure the antagonism of Notch-CBF1 transcriptional activity. HeLa cervical cancer cells are transiently co-transfected with pCDNA3.1/Hygro plasmids containing truncated Notch 1, Notch 2, Notch 3, or Notch 4 receptors and a PGL3 luciferase reporter vector containing 4 copies of CBF1 binding site. The cells were then tested for Notch-CBF1 activity in the absence or presence of test compounds. HeLa cells, maintained in DMEM (high glucose with HEPES), 1× glutamine/penicillin/streptomycin and 10% Fetal Bovine serum, were transiently transfected in a T175 Flask (4.5×10^6 cells/flask) using the Monster Transfection Kit (Minis #MIR2906) according to manufacturers specifications. Table 9 denotes respective DNA quantity for the transfections.
Assay media (5 μL) containing test compounds in final concentrations ranging from 5 μM to 8.4×10^−5 μM (3 fold serial dilutions) were added to the cells and the cell plates were then incubated for 18 hours at 37° C. and 5% CO2. Control wells contained DMSO vehicle (total counts) or 0.5 μM of an in-house small molecule inhibitor (background counts). Duplicates were used for each sample. Luciferase activity was measured after a 20-minute incubation with 50 μl STEADY-GLO® luciferase reagents according to manufacturer's specifications (Promega, Cat. #E2550) and analyzed by Envision plate reader (PerkinElmer, Boston, Mass.).
The antagonist effect of compounds was expressed as 100×[1−(average sample-average background)/(average total−average background)] where sample is the luciferase activity in the presence of test compound, background is equal to the luciferase activity in the presence of the small molecule inhibitor control and the total is signal induced in DMSO wells.

[2] = test system: TALL1 Human T-cell acute lymphoblastic leukemia; experiment: Human tumor xenograft model in mice, TALL1; assay type: in vivo; details: oral administration, 10-20 mg/kg, QDx10; LCK = Log Cell Kill
Description: (§1) Human Tumor Xenograft Models in Mice
(§2) Mice were fed food and water ad libitum.
(§3) Tumor growth inhibition is calculated as follows: […]
(§4) When death occurred, the day of death was recorded.

[3] = test system: MDA-MB-157 Human Breast Carcinoma; experiment: Human tumor xenograft model in mice, MDA-MB-157; assay type: in vivo; details: oral administration, 10-20 mg/kg, QDx15, 10 day-on-2 day-off-5 day on
Description: as §1, §2, §3, §4

[4] = test system: MDA-MB-468 Human Breast Carcinoma; details: oral administration, 10-20 mg/kg, QDx15, 10 day-on-2 day-off-5 day on
Description: Treatment of each animal was based on individual body weight. Treated animals were checked daily for treatment related toxicity/mortality. Each group of animals was weighed before the initiation of treatment (Wt1) and then again following the last treatment dose (Wt2). The difference in body weight (Wt2−Wt1) provides a measure of treatment-related toxicity.
Statistical evaluations of data were performed using Gehan's generalized Wilcoxon test. Statistical significance was declared at P<0.05.

[5] = test system: human tumor xenografts; experiment: Human tumor xenograft models in mice (general statement); assay type: in vivo; details: orally administered (PO)
Description: Mice were fed food and water ad libitum. […] [table] […] When death occurred, the day of death was recorded.

[6] = in vitro; details: human, microsomes, pH 7.4
[7] = human metabolic stability half-life assay; details: microsomes, pH 7.4

Cc1cccc2c1NC(=O)[C@@H](NC(=O)[C@H](CCC(F)(F)F)[C@H](CCC(F)(F)F)C(N)=O)N=C2c1cccc(F)c1 [Example 1, (2R,3S)—N-((3S)-5-(3-Fluorophenyl)-9-methyl-2-oxo-2,3-dihydro-1H-1,4-benzodiazepin-3-yl)-2,3-bis(3,3,3-trifluoropropyl)succinamide]
IC50 [1]: 8.5 nM | Antitumor Activity TALL1 (LCK) [2]: >4.3 | Antitumor Activity MDA-MB-157 (% TGI) [3]: 91% | Antitumor Activity MDA-MB-468 (% TGI) [4]: 98% | antitumor activity in human tumor xenografts implanted in mice [5]: exhibited antitumor activity; also recorded: showed antitumor activity | half-life at 0.5 µM [6]: 1.72 h

COc1cccc2c1NC(=O)[C@@H](NC(=O)[C@H](CCC(F)(F)F)[C@H](CCC(F)(F)F)C(N)=O)N=C2c1ccc(Cl)cc1 [Example 27, (2R,3S)—N-((3S)-5-(4-Chlorophenyl)-9-methoxy-2-oxo-2,3-dihydro-1H-1,4-benzodiazepin-3-yl)-2,3-bis(3,3,3-trifluoropropyl)succinamide]
half-life at 0.5 µM [7]: 1.92 h
